Entries after “also recorded” stand apart in the source; their conditions may differ.

These results are taken from US8563548B2, “Methylene furanone derivatives and use of said derivatives as a photoprotecting or antioxidant or depigmentation agent in cosmetic or dermatological compositions” (Pierre Fabre Dermo-Cosmetique, priority 2008, dated 2013).

A short description of data set [1]: UV absorption characteristics (photoprotecting capacity). The format is physicochemical. Conditions: for critical wavelength (λc) / UVA/UVB ratio (R): UV absorption spectrum; for region of UV absorption / maximum absorption: UVA, UVB, long UVA (340-400 nm). The text has this:
The methylene furanone derivatives of general formula (I) of the present invention were thus evaluated in order to determine their photoprotecting capacity by determination of their UV absorption characteristics: molar extinction coefficient ε, critical wavelength (λc) and UVA/UVB ratio.
By gathering all this information and by comparing the shape of the UV absorption spectra, these molecules can be classified in three categories: […]

A short description of data set [2]: Antioxidant capacity by trapping the superoxide anion (photochemiluminescence with luminol). It counts as biochemical. Conditions: sample needed for activity equivalent to 1 μg Trolox; for ACL μg of sample for 1 μg of Trolox: methylene furanone samples; for μg of sample for 1 μg of Trolox: reference products. The method, then:
The antioxidant capacity of 10 molecules was measured by trapping the superoxide anion: 5d, 9a, 5b, 5a, 5e, 4d, 5f, 5g, 5h, 5j.
The method consists in generating free radicals by a photochemical signal. Oxidation intensity is 1000 times higher than that obtained in normal conditions.
Thus, the superoxide radical (O2—) is generated by a photochemical reaction: L+hv(UV)+O2→L*O2→L^++O2—
Detection is done by chemiluminescence. It enables the evaluation of water-soluble and fat-soluble antioxidant molecules or extracts.
Part of the superoxide anions are quenched by antioxidants. The remaining free radicals are quantified by chemiluminescence. L^++O2^−→N2+AP*^2−→AP^2−+hv (luminescence)
The results are expressed respectively in equivalent quantity of vitamin C or Trolox (6-hydroxy-2,5,7,8-tetramethylchroman-2-carboxylic acid). Sensitivity is on the order of a nanomole.
The analysis of the results depends on two criteria: shape of the curve and numerical value given by the software.

Data set [3] can be described thus: Photostability under Suntest irradiation (10 MED). Conditions: irradiated with 10 MED, UV spectra before and after irradiation; for Photostability in solution: in solution in ethanol; for Photostability powder: powder form. It counts as physicochemical. The text has this:
For this study it was decided to irradiate samples, in powder form or in solution in ethanol, with 10 MED (minimal erythema dose: minimum amount of solar radiation causing the appearance of sunburn). The evaluation of degradation is estimated by the shape of the UV absorption spectra before and after irradiation.
Evaluation of Stability of Methylene Furanone Derivatives Irradiated in Suntest.

A further data set deals with Tyrosinase. The data set can be described thus: Tyrosinase monophenol monooxygenase (MPMO) inhibition test. It counts as biochemical. Further details: concentration or dose not given beside the values. Conditions: for a 50 quantity; substrate L-tyrosine, compared to maximum activity without inhibitor. The method, then:
Tyrosinase is a limiting enzyme in melanogenesis. It belongs to the family of oxidoreductases. […] It is synthesised in melanocytes. It is activated during its migration towards keratinocytes via melanosomes. It transforms tyrosine into DOPA and then dopaquinone, which eventually leads to polymerization and pigment production.
The monophenol monooxygenase function is measured in this test. Tyrosinase activity (MPMO in the strict sense) is measured.
The substrate: L-tyrosine is transformed into L-DOPA. The enzymatic reaction is stopped at this stage. The DOPA produced is determined by an external calibration (0.005 mM to 0.1 mM). The final result is a percentage of inhibition compared to maximum activity without inhibitor or extract.

For `O=C1C=C(Br)/C(=C/c2ccsc2)O1` [6b, (Z)-4-Bromo-5-(thiophene-3-ylmethylene)furan-2-(5H)-one], in data set [1], the “critical wavelength (λc)” value amounted to 355 nm.
As for `O=C1C=CC(=C(c2cc(O)c(O)c(O)c2)c2cc(O)c(O)c(O)c2)O1` [5i, 5-(bis(3,4,5-Trihydroxyphenyl)methylene)furan-2-(5H)-one], the “ACL μg of sample for 1 μg of Trolox” value in data set [2] is 1.5 µg.
`O=C1C=C(c2ccc3ccccc3c2)/C(=C/c2ccc3ccccc3c2)O1` [4c, (Z)-4-(2-naphthalene)-5-(2-naphthalenephenylmethylene)furan-2(5H)-one]: in data set [1] (UV absorption), the “molar extinction coefficient ε” value is given as 22,000 l.mol^−1.cm^−1. Besides, in data set [1], the “UVA/UVB ratio (R)” value turned out to be 3.2 and the “region of UV absorption / maximum absorption” value is “maximum is in UVB”.
In the case of `COc1ccc(O)c(C(C)(C)C)c1` [Butylhydroxyanisole, reference compound], the “μg of sample for 1 μg of Trolox” value in data set [2] is 2.650 µg.
Turning to `O=C1C=CC(=C(c2ccccc2F)c2ccccc2F)O1` [5f, 5-bis((2-fluorophenyl)methylene)furan-2-(5H)-one], in data set [3], the Photostability in solution result is reported as “stable” and the Photostability powder entry is “stable”. In data set [2], the “ACL μg of sample for 1 μg of Trolox” value worked out at 88.3 µg.
As for `O=C1C=CC(=C(c2ccccc2)c2ccccc2)O1` [5a, 5-(Diphenylmethylene)furan-2(5H)-one], in data set [1], the “critical wavelength (λc)” value stood at 367 nm. Besides, in data set [3], the Photostability in solution entry is “stable” and the Photostability powder result is on record as “stable”. Moreover, in data set [2], the “ACL μg of sample for 1 μg of Trolox” value came out at 43.0 µg.
Regarding `COc1cc(C(=C2C=CC(=O)O2)c2cc(OC)c(OC)c(OC)c2)cc(OC)c1OC` [5h, 5-(bis(3,4,5-trimethoxyphenyl)methylene)furan-2-(5H)-one], the “ACL μg of sample for 1 μg of Trolox” value in data set [2] was 30 µg.
Take `COc1ccc(/C=C2\OC(=O)C=C2c2ccc(OC)c(OC)c2)cc1OC` [4d]: in data set [3], the Photostability in solution entry is “moderately stable” and the Photostability powder result was “stable”. Besides, the “ACL μg of sample for 1 μg of Trolox” value in data set [2] came to 50.2 µg.
Turning to `O=C1C=C(c2ccccc2F)/C(=C/c2ccccc2F)O1` [4f, (Z)-4-(2-Fluorophenyl)-(Z)-5-(2-fluorophenylmethylene)furan-2(5H)-one], the “region of UV absorption / maximum absorption” value in data set [1] was “absorb in long UVA wavelengths”.
Still for that read-out and setting: the result for `O=C1C=C(Br)/C(=C/c2ccccc2)O1` [6a, (Z)-4-Bromo-5-(phenylmethylene)furan-2-(5H)-one] reads “absorb in long UVA wavelengths”.
Same read-out and setting: with `O=C1C=C(c2ccccc2)/C(=C/c2ccsc2)O1` [8b, 4-Phenyl-(Z)-5-(thiophene-3-ylmethylene)furan-2-(5H)-one] the entry was “absorb in long UVA wavelengths”.
As for `CC(C)(C)OC(=O)Nc1ccc(C(=C2C=CC(=O)O2)c2ccc(NC(=O)OC(C)(C)C)cc2)cc1` [5e], in data set [3], the Photostability in solution entry is on record as “stable” and the Photostability powder result is listed as “stable”. In data set [2], the “ACL μg of sample for 1 μg of Trolox” value came out at 46.3 µg.
As to `COc1ccc(C(=C2C=CC(=O)O2)c2ccc(OC)c(OC)c2)cc1OC` [5d, 5-(bis(3,4-Dimethoxyphenyl)methylene)furan-2-(5H)-one], in data set [3], the Photostability in solution result is given as “stable” and the Photostability powder entry is given as “completely unstable; also recorded: not stable”. Moreover, in data set [2], the “ACL μg of sample for 1 μg of Trolox” value was found to be 12.7 µg.
In the case of `O=C1O[C@H]([C@@H](O)CO)C(O)=C1O` [Vitamin C, ascorbic acid, reference compound], the “μg of sample for 1 μg of Trolox” value in data set [2] is 0.451 µg.
`O=C1C=C(c2ccccc2)/C(=C/c2ccccc2)O1` [4a, (Z)-4-Phenyl-5-(phenylmethylene)furan-2(5H)-one]: the “region of UV absorption / maximum absorption” value in data set [1] is on record as “absorb in long UVA wavelengths”.
Take `O=C1C=CC(=C(c2ccc(O)c(O)c2)c2ccc(O)c(O)c2)O1` [5g, 5-(bis(3,4-dihydroxyphenyl)methylene)furan-2-(5H)-one]: the “ACL μg of sample for 1 μg of Trolox” value in data set [2] amounted to 0.03 µg. Further, the “inhibition of MPMO enzyme activity” value in the data set with Tyrosinase was determined as 65.93%.
For `O=C1C=C(c2ccsc2)/C(=C/c2ccsc2)O1` [4b, (Z)-4-(3-Thiophene)-5-(3-thiophenylmethylene)furan-2(5H)one], in data set [1], the “UVA/UVB ratio (R)” value was determined as 1.9 and the “region of UV absorption / maximum absorption” value is recorded as “maximum is in UVB”.
In the case of `COC1=C(OC)C(=O)C(CCCCCCCCCCO)=C(C)C1=O` [Idebenone, reference compound], the “μg of sample for 1 μg of Trolox” value in data set [2] came out at 10.10 µg.
Consider `O=C1C=C(c2ccsc2)/C(=C/c2ccccc2)O1` [8a, (Z)-5-(Phenylmethylene)-4-(thiophene-3-yl)furan-2-(5H)-one], for which the “region of UV absorption / maximum absorption” value in data set [1] is “absorb in long UVA wavelengths”.
As to `O=C1C=C/C(=C(\c2ccccc2)c2ccsc2)O1` [9a, (Z)-5-(phenylthiophene-3-ylmethylene)furan-2-(5H)-one], in data set [3], the Photostability in solution result is reported as “stable” and the Photostability powder result was “stable”. Also, the “ACL μg of sample for 1 μg of Trolox” value in data set [2] is 21.6 µg.
Take `N[C@@H](CS)C(=O)O` [Cysteine, reference compound]: the “μg of sample for 1 μg of Trolox” value in data set [2] is 698 µg.
Regarding `CC(=O)Oc1c(C)c(C)c2c(c1C)CCC(C)(CCC[C@H](C)CCC[C@H](C)CCCC(C)C)O2` (stereo partly drawn) [α-tocopherol-acetate, reference compound], the “μg of sample for 1 μg of Trolox” value in data set [2] stood at 140 µg.
On the same count and under the same terms, the result for `O=C(O)CCCC[C@@H]1CCSS1` (racemic) [Lipoic acid, reference compound] reads “NEGATIVE”.
As to `O=C1C=CC(=C(c2ccsc2)c2ccsc2)O1` [5b, 5-(Dithiophene-3-ylmethylene)furan-2-(5H)-one], in data set [3], the Photostability in solution entry was “stable” and the Photostability powder result is recorded as “stable”. Moreover, in data set [2], the “ACL μg of sample for 1 μg of Trolox” value worked out at 28.0 µg.
Regarding `O=C1C=CC(=C(c2ccc3ccccc3c2)c2ccc3ccccc3c2)O1` [5c, 5-(Dinaphthalene-2-ylmethylene)furan-2-(5H)-one], in data set [1], the “region of UV absorption / maximum absorption” value is on record as “absorb in long UVA wavelengths”.
For the compound `Cc1c(C)c2c(c(C)c1O)CCC(C)(C(=O)O)O2` (stereo not drawn) [Trolox, 6-hydroxy-2,5,7,8-tetramethylchroman-2-carboxylic acid, reference compound], the “μg of sample for 1 μg of Trolox” value in data set [2] is 1.067 µg.
